This note sets out measurements from patent publication US20260068886A1, “COMPOSITIONS AND METHODS FOR TARGETED INHIBITION AND DEGRADATION OF PROTEINS IN AN INSECT CELL” (Oerth Bio LLC, priority 2022, published 2026).

The subject of experiment [1] is MBP-FKBP-Hibit-His6 / sfVHL:sfElonginB/C+CUL2/RBX1. Kind of experiment: in vitro ubiquitination of MBP-FKBP-Hibit-His6 by sfVHL mediated by dTAGV-1 (Western blot, anti-His6). In kind it is biochemical. The settings on record: sfVHL:sfElonginB/C + human CUL2/RBX1, E1, E2, ATP, ubiquitin; range of concentrations; room temperature. An excerpt: Lanes 1-4 and 5-8 are replicates of dose dependent dTAGV-1 dependent ubiquitination of MBP-FKBP-HIbit by sfVHL in vitro. In vitro ubiquitination is sfVHL dependent. No ubiquitination of MBP-FKBP-Hibit is observed in the absence of sfVHL (Lanes 9-16).
To assess the ability of sfVHL to act as a CUL2 adaptor protein en route to ubiquitination, sfVHL was expressed and purified recombinantly from E. coli as a complex with sfElonginB and C. […] The intensity and number of resolved bands observed, each indicating a distinct ubiquitination pattern of MBP-FKBP-Hibit-His6, was dependent on the dTAGV-1 concentration in the preparation. […] Further, ubiquitination as indicated by the complex band pattern above the MBP-FKBP-Hibit-His6 protein, was only observed when sfVHL:sfElonginB/C+CUL2/RBX1 was present confirming that the observed ubiquitination is PROTAC and sfVHL:sfElonginB/D+CUL2/RBX1 complex dependent.
To assess the ability of sfVHL to act as a CUL2 adaptor protein en route to ubiquitination, sfVHL was expressed and purified recombinantly from E. coli as a complex with sfElonginB and C. […] Further, ubiquitination was only observed when sfVHL:sfElonginB/C+CUL2/RBX1 was present confirming that MBP-FKBP-Hibit-His6 ubiquitination is PROTAC and sfVHL:sfElonginB/D+CUL2/RBX1 complex dependent.
For orientation: A western blot detects proteins with antibodies after separation by electrophoresis.

The test system of a further experiment is FKBP-GFP. Kind of experiment: sfVHL mediated FKBP degradation in Sf9 cells expressing FKBP-GFP-P2A-RFP (fluorescence microscopy). In kind it is cell-based. The procedure:
FIG. 2 presents graphs showing the FKBP-GFP to RFP signal ratio when treated with dTAG-V1 (dose curve) and Bortezomib (1 or 10 μM).
FIG. 3 presents microscopy images showing the data plotted in the graphs of FIG. 2. The images are of dTAG-V1 treated Sf9 cells expressing FKBP-GFP-P2A-RFP observed in Brightfield, green fluorescent protein and red fluorescent protein excitation wavelengths.
Sf9 cells were seeded into individual wells of 6-well sterile tissue culture plates (2×10^6 cells per well) with 2 mL fresh Sf900 III serum-free medium prior to the assay. The Sf9 cells were transfected with a plasmid expressing FKBP-GFP-P2A-RFP. Plasmid construct (in TE buffer) was aliquoted into a sterile Eppendorf microcentrifuge tube, with fresh sSf900 III medium added to each Plasmid. Cellfectin II reagent (Life Technologies, Carlsbad, CA) was then added to the transfection mixture, and the tubes were inverted to mix and incubated at room temperature for 30 minutes. All media was removed from each well just prior to the addition of the transfection mixture. Complete transfection mixtures were added to cells dropwise using a P1000 pipette with sterile filter tips. Cells overlayed with transfection mixtures were incubated at 27° C. for 4 hours. Following 4 hours of incubation time, transfection mixtures were removed and replaced with 2 mL of fresh complete medium per well (Sf900 III). Cells were allowed to incubate at 27° C. for 96 hours to allow expression from the transfected plasmid. After construct expression, cells are harvested for further experiments. Cells were detached using a P1000 pipette with sterile filter tips. Cells were resuspended in fresh Sf900 III medium. Transfected Sf9 cells were seeded into individual wells of 96-well sterile tissue culture plates (1×10^6 cells per well) with 0.1 mL fresh Sf900 III serum-free medium. Cells were then supplemented with a 10× stock of the indicated compounds (dTAGV1, dTAG-V1-NEG, Bortezomib). Protein levels were finally analyzed using Carl Zeiss microscopy and FIJI image analysis.

Molecules are shown by their SMILES. Entries after “also recorded” stand apart in the source; their conditions may differ.

For the compound `CC[C@H](C(=O)N1CCCC[C@H]1C(=O)O[C@H](CCc1ccc(OC)c(OC)c1)c1ccccc1OCC(=O)NCCCCCCC(=O)N[C@H](C(=O)N1C[C@H](O)C[C@H]1C(=O)N[C@@H](C)c1ccc(-c2scnc2C)cc1)C(C)(C)C)c1cc(OC)c(OC)c(OC)c1` [dTAGV-1], the “ubiquitination of MBP-FKBP-Hibit-His6” value in experiment [1] was “PROTAC mediated mono- and poly-ubiquitination of the protein; also recorded: observed in the presence of dTAGV-1 in a dose dependent manner; also recorded: FKBP substrate is ubiquitinated in vitro”.

For the compound `CC(C)C[C@H](NC(=O)[C@H](Cc1ccccc1)NC(=O)c1cnccn1)B(O)O` [bortezomib, Bortezomib], in the experiment with FKBP-GFP (added together with dTAG-V1 (1 or 10 μM)), the “effect on dTAG-V1 dependent reduction of GFP signal” value is “prevents the dTAG-V1 dependent reduction of GFP signal”.

As to `CC[C@H](C(=O)N1CCCC[C@H]1C(=O)O[C@H](CCc1ccc(OC)c(OC)c1)c1ccccc1OCC(=O)NCCCCCCC(=O)N[C@H](C(=O)N1C[C@@H](O)C[C@@H]1C(=O)N[C@@H](C)c1ccc(-c2scnc2C)cc1)C(C)(C)C)c1cc(OC)c(OC)c(OC)c1` [dTAG-V1-NEG], in the experiment on FKBP-GFP (24 hours of incubation), the “GFP fluorescence (FKBP-GFP)” value was “no decrease in green fluorescent protein is observed”.

As for `CC[C@H](C(=O)N1CCCC[C@H]1C(=O)O[C@H](CCc1ccc(OC)c(OC)c1)c1ccccc1OCC(=O)NCCCCCCC(=O)N[C@H](C(=O)N1C[C@H](O)C[C@H]1C(=O)N[C@@H](C)c1ccc(-c2scnc2C)cc1)C(C)(C)C)c1cc(OC)c(OC)c(OC)c1` [dTAG-V1], in the experiment with FKBP-GFP (24 hours of incubation), the “GFP fluorescence (FKBP-GFP)” value was “significantly decreased”, the RFP signal result is “remains unchanged” and the “concentration of optimal decrease of GFP fluorescence” value is approximately 100 nM.
